Laboratory results published in the supplement of paper PMC10307832.

Columns and labels:
Assay in all cases: relative viability (nuclei count vs DMSO), 5 days (fraction); higher = more cells survive
A-427 = system: A-427
Summary of the method: (§1)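 One day after seeding in 1536-well plates, lung cancer cell lines were dosed by pin tool. Dosing was either single-drug or a fixed anchor-drug dose plus five library-drug doses (not always all listed) in √10 steps. After 5 days, nuclei were stained in one fix-and-stain step and counted on 4× images, and relative viability is the nuclei count of treated wells over that of vehicle wells, given as the median of duplicate plates.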

ABC-1 = system: ABC-1
Summary of the method: as §1

COR-L23 = system: COR-L23
Summary of the method: as §1

ChaGo-K-1 = system: ChaGo-K-1
Summary of the method: as §1

EMC-BAC-2 = system: EMC-BAC-2
Summary of the method: as §1

HARA = system: HARA
Summary of the method: as §1

HCC-15 = system: HCC-15
Summary of the method: as §1

HCC-366 = system: HCC-366
Summary of the method: as §1

HCC-78 = system: HCC-78
Summary of the method: as §1

LC-2-ad = system: LC-2-ad
Summary of the method: as §1

LK-2 = system: LK-2
Summary of the method: as §1

NCI-H1650 = system: NCI-H1650
Summary of the method: as §1

NCI-H1734 = system: NCI-H1734
Summary of the method: as §1

NCI-H1793 = system: NCI-H1793
Summary of the method: as §1

NCI-H1944 = system: NCI-H1944
Summary of the method: as §1

NCI-H1993 = system: NCI-H1993
Summary of the method: as §1

NCI-H2009 = system: NCI-H2009
Summary of the method: as §1

NCI-H2023 = system: NCI-H2023
Summary of the method: as §1

NCI-H2228 = system: NCI-H2228
Summary of the method: as §1

NCI-H23 = system: NCI-H23
Summary of the method: as §1

NCI-H2405 = system: NCI-H2405
Summary of the method: as §1

NCI-H838 = system: NCI-H838
Summary of the method: as §1

SK-LU-1 = system: SK-LU-1
Summary of the method: as §1

UMC-11 = system: UMC-11
Summary of the method: as §1

SMILES: COc1cc(N2CCC(C(N)=O)CC2)ccc1Nc1nc(N)c(Cl)c(Nc2ccccc2S(=O)(=O)C(C)C)n1 [HG-5-88-01] + Cc1nc(Nc2ncc(C(=O)Nc3c(C)cccc3Cl)s2)cc(N2CCN(CCO)CC2)n1 [Dasatinib] (partner 0.075 µM)
- relative viability (A-427; first compound 0.04 µM): 0.77
- relative viability (A-427; first compound 0.1265 µM): 0.686
- relative viability (A-427; first compound 0.4 µM): 0.676
- relative viability (A-427; first compound 1.265 µM): 0.746
- relative viability (A-427; first compound 4 µM): 0.431
- relative viability (ABC-1; first compound 0.04 µM): 0.5
- relative viability (ABC-1; first compound 0.1265 µM): 0.583
- relative viability (ABC-1; first compound 0.4 µM): 0.389
- relative viability (ABC-1; first compound 1.265 µM): 0.457
- relative viability (ABC-1; first compound 4 µM): 0.304
- relative viability (COR-L23; first compound 0.04 µM): 0.536
- relative viability (COR-L23; first compound 0.1265 µM): 0.465
- relative viability (COR-L23; first compound 0.4 µM): 0.436
- relative viability (COR-L23; first compound 1.265 µM): 0.374
- relative viability (COR-L23; first compound 4 µM): 0.169
- relative viability (ChaGo-K-1; first compound 0.04 µM): 0.776
- relative viability (ChaGo-K-1; first compound 0.1265 µM): 0.63
- relative viability (ChaGo-K-1; first compound 0.4 µM): 0.509
- relative viability (ChaGo-K-1; first compound 1.265 µM): 0.57
- relative viability (ChaGo-K-1; first compound 4 µM): 0.401
- relative viability (EMC-BAC-2; first compound 0.04 µM): 0.31
- relative viability (EMC-BAC-2; first compound 0.1265 µM): 0.343
- relative viability (EMC-BAC-2; first compound 0.4 µM): 0.217
- relative viability (EMC-BAC-2; first compound 1.265 µM): 0.243
- relative viability (EMC-BAC-2; first compound 4 µM): 0.218
- relative viability (HARA; first compound 0.04 µM): 0.25
- relative viability (HARA; first compound 0.1265 µM): 0.255
- relative viability (HARA; first compound 0.4 µM): 0.147
- relative viability (HARA; first compound 1.265 µM): 0.113
- relative viability (HARA; first compound 4 µM): 0.219
- relative viability (HCC-15; first compound 0.04 µM): 0.669
- relative viability (HCC-15; first compound 0.1265 µM): 0.59
- relative viability (HCC-15; first compound 0.4 µM): 0.416
- relative viability (HCC-15; first compound 1.265 µM): 0.397
- relative viability (HCC-15; first compound 4 µM): 0.347
- relative viability (HCC-366; first compound 0.04 µM): 0.65
- relative viability (HCC-366; first compound 0.1265 µM): 0.677
- relative viability (HCC-366; first compound 0.4 µM): 0.514
- relative viability (HCC-366; first compound 1.265 µM): 0.691
- relative viability (HCC-366; first compound 4 µM): 0.3
- relative viability (HCC-78; first compound 0.04 µM): 0.356
- relative viability (HCC-78; first compound 0.1265 µM): 0.286
- relative viability (HCC-78; first compound 0.4 µM): 0.22
- relative viability (HCC-78; first compound 1.265 µM): 0.197
- relative viability (HCC-78; first compound 4 µM): 0.174
- relative viability (LC-2-ad; first compound 0.04 µM): 0.633
- relative viability (LC-2-ad; first compound 0.1265 µM): 0.469
- relative viability (LC-2-ad; first compound 0.4 µM): 0.261
- relative viability (LC-2-ad; first compound 1.265 µM): 0.287
- relative viability (LC-2-ad; first compound 4 µM): 0.205
- relative viability (LK-2; first compound 0.04 µM): 0.334
- relative viability (LK-2; first compound 0.1265 µM): 0.235
- relative viability (LK-2; first compound 0.4 µM): 0.173
- relative viability (LK-2; first compound 1.265 µM): 0.247
- relative viability (LK-2; first compound 4 µM): 0.184
- relative viability (NCI-H1650; first compound 0.04 µM): 0.324
- relative viability (NCI-H1650; first compound 0.1265 µM): 0.327
- relative viability (NCI-H1650; first compound 0.4 µM): 0.278
- relative viability (NCI-H1650; first compound 1.265 µM): 0.232
- relative viability (NCI-H1650; first compound 4 µM): 0.221
- relative viability (NCI-H1734; first compound 0.04 µM): 0.412
- relative viability (NCI-H1734; first compound 0.1265 µM): 0.432
- relative viability (NCI-H1734; first compound 0.4 µM): 0.326
- relative viability (NCI-H1734; first compound 1.265 µM): 0.358
- relative viability (NCI-H1734; first compound 4 µM): 0.284
- relative viability (NCI-H1793; first compound 0.1265 µM): 0.617
- relative viability (NCI-H1793; first compound 0.4 µM): 0.355
- relative viability (NCI-H1793; first compound 4 µM): 0.336
- relative viability (NCI-H1944; first compound 0.04 µM): 0.205
- relative viability (NCI-H1944; first compound 0.1265 µM): 0.201
- relative viability (NCI-H1944; first compound 0.4 µM): 0.233
- relative viability (NCI-H1944; first compound 1.265 µM): 0.191
- relative viability (NCI-H1944; first compound 4 µM): 0.188
- relative viability (NCI-H1993; first compound 0.04 µM): 0.633
- relative viability (NCI-H1993; first compound 0.1265 µM): 0.569
- relative viability (NCI-H1993; first compound 0.4 µM): 0.502
- relative viability (NCI-H1993; first compound 1.265 µM): 0.475
- relative viability (NCI-H1993; first compound 4 µM): 0.581
- relative viability (NCI-H2009; first compound 0.04 µM): 0.26
- relative viability (NCI-H2009; first compound 0.1265 µM): 0.251
- relative viability (NCI-H2009; first compound 0.4 µM): 0.161
- relative viability (NCI-H2009; first compound 1.265 µM): 0.141
- relative viability (NCI-H2009; first compound 4 µM): 0.156
- relative viability (NCI-H2023; first compound 0.04 µM): 0.646
- relative viability (NCI-H2023; first compound 0.1265 µM): 0.515
- relative viability (NCI-H2023; first compound 0.4 µM): 0.318
- relative viability (NCI-H2023; first compound 1.265 µM): 0.196
- relative viability (NCI-H2023; first compound 4 µM): 0.207
- relative viability (NCI-H2228; first compound 0.04 µM): 0.106
- relative viability (NCI-H2228; first compound 0.1265 µM): 0.0974
- relative viability (NCI-H2228; first compound 0.4 µM): 0.0904
- relative viability (NCI-H2228; first compound 1.265 µM): 0.101
- relative viability (NCI-H2228; first compound 4 µM): 0.0733
- relative viability (NCI-H23; first compound 0.04 µM): 0.703
- relative viability (NCI-H23; first compound 0.1265 µM): 0.84
- relative viability (NCI-H23; first compound 0.4 µM): 0.51
- relative viability (NCI-H23; first compound 1.265 µM): 0.588
- relative viability (NCI-H23; first compound 4 µM): 0.265
- relative viability (NCI-H2405; first compound 0.04 µM): 0.207
- relative viability (NCI-H2405; first compound 0.1265 µM): 0.179
- relative viability (NCI-H2405; first compound 0.4 µM): 0.155
- relative viability (NCI-H2405; first compound 1.265 µM): 0.197
- relative viability (NCI-H2405; first compound 4 µM): 0.153
- relative viability (NCI-H838; first compound 0.04 µM): 0.266
- relative viability (NCI-H838; first compound 0.1265 µM): 0.279
- relative viability (NCI-H838; first compound 0.4 µM): 0.233
- relative viability (NCI-H838; first compound 1.265 µM): 0.251
- relative viability (NCI-H838; first compound 4 µM): 0.181
- relative viability (SK-LU-1; first compound 0.04 µM): 0.178
- relative viability (SK-LU-1; first compound 0.1265 µM): 0.182
- relative viability (SK-LU-1; first compound 0.4 µM): 0.106
- relative viability (SK-LU-1; first compound 1.265 µM): 0.123
- relative viability (SK-LU-1; first compound 4 µM): 0.0874
- relative viability (UMC-11; first compound 0.04 µM): 0.434
- relative viability (UMC-11; first compound 0.1265 µM): 0.449
- relative viability (UMC-11; first compound 1.265 µM): 0.469
- relative viability (UMC-11; first compound 4 µM): 0.409
